Read-outs that look alike come from different tables or passages of the source.
Tests used:
FTase = conditions: Figure 1, cited from earlier work
[1] = molecular target: human farnesyltransferase (FTase) (Homo sapiens, UniProt P49354+P49356); experiment: FTase inhibitory assay (fluorescence, Dansyl-GCVLS); assay type: biochemical; conditions: for % FTI: inhibition of human FTase at 100 μM of tested compound, mean of two experiments; for IC50: human FTase in vitro
Description: With 40 new products in hand, the determination of their inhibitory activity on human farnesyl-transferase (FTase) in vitro was first undertaken. Dimethyl sulfoxide (DMSO) was used as the negative control, and Chaetomellic acid A was the positive reference in all assays. At the outset, and in order to select only significant results, products with an inhibitory power greater than 60% at an initial screening concentration of 100 µM were retained for the determination of their IC50 and, therefore, for further discussion. Moreover, given the number of products tested, they are grouped into three subfamilies on the basis of the degree of the sulphur atom oxidation (series of sulfides, series of sulfoxides, and series of sulfones), and the results obtained are grouped in Table 1, Table 2 and Table 3.
3.3. FTase Inhibitory Assay
Assays were realized in 96-well plates, prepared with a Biomek NKMC and a Biomek 3000 from Beckman Coulter, and read on a Wallac Victor fluorimeter from PerkinElmer. Per well, 20 µL of farnesyl pyrophosphate (10 μM) was added to 180 µL of a solution containing 2 µL of varied concentrations of potential inhibitors (dissolved in DMSO) and 178 μL of a solution composed of 10 μL of partially purified recombinant human FTase (15 µg mL^−1) and 1.0 µL of Dansyl-GCVLS peptide (in the following buffer: 5.6 mM DTT, 5.6 mM MgCl2, 12 μM ZnCl2 and 0.2% (w/v) octyl-β-D-glucopyranoside, 52 mM Tris/HCl, pH 7.5). Fluorescence was recorded for 15 min (0.7 s per well, 20 repeats) at 30 °C with an excitation filter at 340 nm and an emission filter of 486 nm. Each measurement was reproduced twice, in duplicate. The kinetic experiments were realized under the same conditions, either with FPP as varied substrate with a constant concentration of Dns-GCVLS of 2.5 μM or with Dns-GCVLS as varied substrate with a constant concentration of FPP of 10 μM. Non-linear regressions were performed using the Excel software.

Row | % FTI [1] [%] | Compound | also measured
1 | – | COC1=C(OC)[C@H](O)[C@H](C/C=C(\C)CC/C=C(\C)CCC=C(C)C)[C@@H](C)C1=O [Antroquinonol] | IC50 (FTase; known FTIs): 2990 nM
2 | 68 | COc1ccc(CNC(=O)[C@@H]2C[S+]([O-])[C@@]3(C)c4ccccc4C(=O)N23)cc1 (some centres unmarked) [5bF] | –
3 | 53 | COc1cccc(CNC(=O)[C@@H]2CS(=O)(=O)[C@@]3(C)c4ccccc4C(=O)N23)c1 [7bE] | –
4 | 42 | COc1cccc(CNC(=O)[C@@H]2CS(=O)(=O)[C@H]3c4ccccc4C(=O)N23)c1 [7aE] | –
5 | 76 | C[C@]12c3ccccc3C(=O)N1[C@H](C(=O)NCc1ccc(Cl)cc1Cl)CS2(=O)=O [7bH] | FTase inhibitory activity (in words) [1]: false positive
6 | 87 | COc1ccccc1CNC(=O)[C@@H]1C[S+]([O-])[C@@]2(C)c3ccccc3C(=O)N12 (some centres unmarked) [5bG] | IC50 [1]: 4.03 nM
7 | – | CCCC[C@@H](C)/C=C(C)/C=C(\C)C(=O)NC1=C[C@@](O)(/C=C/C=C/C=C/C(=O)NC2=C(O)CCC2=O)[C@@H]2O[C@@H]2C1=O [Manumycin-A] | IC50 (FTase; known FTIs): 30 nM
8 | 47 | COc1ccccc1CNC(=O)[C@@H]1CS(=O)(=O)[C@H]2c3ccccc3C(=O)N12 [7aG] | –
9 | 74 | COc1ccccc1CNC(=O)[C@@H]1CS(=O)(=O)[C@@]2(C)c3ccccc3C(=O)N12 [7bG] | IC50 [1]: 67.3 nM
10 | – | CS(=O)(=O)CC[C@H](NC(=O)c1cccc(CNC(=O)[C@@H](N)CS)c1)C(=O)O [C-AMBA-M] | IC50 (FTase; known FTIs): 60 nM
11 | 31 | C[C@]12c3ccccc3C(=O)N1[C@H](C(=O)NCc1ccc(Cl)cc1Cl)C[S+]2[O-] (some centres unmarked) [5bH] | –
12 | 100 | CCCCCCCCCCCCCC/C(C(=O)O)=C(\C)C(=O)O [Ref., Chaetomellic acid A, reference compound] | IC50 [1]: 183 nM
13 | – | CN1C(=O)[C@]23CC4=CC=C[C@H](O)[C@H]4N2C(=O)[C@@]1(CO)SS3 [Gliotoxin] | IC50 (FTase; known FTI): 80000 nM; IC50 (FTase; known FTIs): 80 nM
14 | 53 | COc1ccc(CNC(=O)C2CS(=O)(=O)C3c4ccccc4C(=O)N23)cc1OC (centres unmarked) [7aI] | –
15 | 44 | COc1ccc(CNC(=O)[C@@H]2CS(=O)(=O)[C@@]3(C)c4ccccc4C(=O)N23)cc1 [7bF] | –
16 | 13 | COc1ccc(CNC(=O)[C@@H]2CS(=O)(=O)[C@@]3(C)c4ccccc4C(=O)N23)cc1OC [7bI] | –
17 | – | Cn1cncc1[C@@](N)(c1ccc(Cl)cc1)c1ccc2c(c1)c(-c1cccc(Cl)c1)cc(=O)n2C [Tipifarnib (R115777), Tipifarnib] | IC50 (FTase; known FTIs): 7.9 nM
18 | 34 | COc1ccc(CNC(=O)[C@@H]2CS(=O)(=O)[C@H]3c4ccccc4C(=O)N23)cc1 [7aF] | –
19 | 41 | C[C@]12c3ccccc3C(=O)N1[C@H](C(=O)NCc1ccccc1)CS2(=O)=O [7bA] | –
20 | 62 | COc1cccc(CNC(=O)[C@@H]2C[S+]([O-])[C@@]3(C)c4ccccc4C(=O)N23)c1 (some centres unmarked) [5bE] | –
21 | 20 | O=C(NCc1ccccc1)[C@@H]1CS(=O)(=O)[C@H]2c3ccccc3C(=O)N12 [7aA] | –
22 | 0 | COc1ccc(CNC(=O)[C@@H]2C[S+]([O-])[C@@]3(C)c4ccccc4C(=O)N23)cc1OC (some centres unmarked) [5bI] | FTase inhibitory activity (in words) [1]: complete loss of inhibitory activity
23 | 30 | CC12c3ccccc3C(=O)N1C(C(=O)NCc1ccccc1)C[S+]2[O-] (centres unmarked) [5bA] | –
24 | 43 | C[C@]12c3ccccc3C(=O)N1[C@H](C(=O)NCc1cccc(C(F)(F)F)c1)C[S+]2[O-] (some centres unmarked) [5bD] | –
25 | 32 | C[C@]12c3ccccc3C(=O)N1[C@H](C(=O)NCc1cccc(C(F)(F)F)c1)CS2(=O)=O [7bD] | –
26 | 28 | O=C(NCc1cccc(C(F)(F)F)c1)[C@@H]1CS(=O)(=O)[C@H]2c3ccccc3C(=O)N12 [7aD] | –
